{"source": "patent US4612318A", "about": "“CNS-depressant and analgesic tricyclo-[pyrazolo-[3,4-6]-pyridine] derivatives and pharmaceutical compositions thereof” (Gruppo Lepetit S.p.A., priority 1982, dated 1986)", "key": {"[1]": {"test_system": "secondary conditioned response (CR2), primary conditioned response (CR) and unconditioned response (UR) of rats", "assay": "\"pole climbing avoidance test\" (anti-anxiety activity)", "assay_type": "in vivo", "conditions": "i.p., about 3 to about 60 mg/kg, groups of ten rats", "from_the_text": "The anti-anxiety activity of the compounds of the invention was investigated by means of the \"pole climbing avoidance test\", performed essentially as described by G. Maffii, in Journ. Pharm. Pharmacol., 11 129, (1959). A conditioned animal, generally rat, is deconditioned, i.e. is brought to its normal pyschic behaviour, by administration of a suitable amount of the compound to be tested. According to the authors, an inhibition of the secondary conditioned response (CR2) without a contemporary or coupled with a not significant inhibition of the primary conditioned response (CR) and the unconditioned response (UR) is a clear indication of an anti-anxiety effect since these last two parameters are connected with sedative and hypnotic properties."}, "[2]": {"test_system": "writhing in mice; pain due to compression of oedema paws in rats", "assay": "analgesic activity in both tests (writhing test in mice and pain relief test in rats)", "assay_type": "in vivo", "from_the_text": "The analgesic activity of the compounds of the present invention was ascertained by means of two known tests for analgesia: the \"writhing test\" in mice, described by L.C. Hendershot and J. Forsaith, in J. Pharm. Exp. Therap. 125, 237, (1959), and the \"pain relief test\" in rats described by L. O. Randall and J. J. Selitto, in Arch. Int. Pharmacodyn. 111, 409, (1957). In the former the disappearance or the reduction of writhing in mice, intraperitoneally administered, with p-phenylquinone--a substance known to produce pain especially in the place of injection--is evaluated; the latter test is used to evaluate the ratio of relief from the pain due to compression of oedema paws in rats orally administered with the test compound."}, "[3]": {"assay": "acute toxicity (LD50) in rats", "conditions": "rat, in vivo, po; orally administered rats"}, "[4]": {"test_system": "writhing in mice intraperitoneally administered with p-phenylquinone", "assay": "\"writhing test\" (p-phenylquinone) for analgesia", "assay_type": "in vivo", "protocol": "(§1) Hendershot and J. Forsaith, in J. Pharm. Exp. Therap. […] Int. Pharmacodyn. […] In the former the disappearance or the reduction of writhing in mice, intraperitoneally administered, with p-phenylquinone--a substance known to produce pain especially in the place of injection--is evaluated; the latter test is used to evaluate the ratio of relief from the pain due to compression of oedema paws in rats orally administered with the test compound."}, "[5]": {"assay": "acute toxicity (LD50) in mice", "conditions": "mouse, in vivo, po; orally administered mice"}, "[6]": {"test_system": "pain due to compression of oedema paws in rats", "assay": "\"pain relief test\" (compression of oedema paws) for analgesia", "assay_type": "in vivo", "protocol": "as §1"}}, "data": [{"compound": "CCCCOc1nc2c(c(C)nn2C)c2c1CCCC2", "note": "[Example 27]", "values": [{"measurement": "influence on the CR and the UR (in words)", "setting": "[1]", "value": "no practical influence"}]}, {"compound": "Cc1nn(C)c2[nH]c(=O)c3c(c12)CCCC3", "note": "[Example 18, 6,7,8,9-Tetrahydro-1,3-dimethyl-3H-pyrazolo[3,4-c]isoquinoline-5(4H)-one]", "values": [{"measurement": "influence on the CR and the UR (in words)", "setting": "[1]", "value": "no practical influence"}]}, {"compound": "CCN(CC)CCn1c(=O)c2c(c3c(C)nn(C)c31)CCC2", "note": "[Example 39]", "values": [{"measurement": "analgesic activity in these tests (in words)", "setting": "[2]", "value": "good activity"}]}, {"compound": "Cc1nn(C)c(N)c1C1=CCN(C)CC1", "note": "[Example 1, 4-(1,2,5,6-tetrahydro-1-methyl-4-pyridinyl)-1,3-dimethyl 5-(1H)-pyrazolamine]", "values": [{"measurement": "influence on the CR and the UR (in words)", "setting": "[1]", "value": "no practical influence"}]}, {"compound": "Cc1nn(C)c2nc(OCCO)c3c(c12)CCCC3", "note": "[Example 28]", "values": [{"measurement": "influence on the CR and the UR (in words)", "setting": "[1]", "value": "no practical influence"}]}, {"compound": "CCC(=O)N1CC=C(c2c(C)nn(C)c2N)CC1", "note": "[Example 8]", "values": [{"measurement": "influence on the CR and the UR (in words)", "setting": "[1]", "value": "no practical influence"}]}, {"compound": "Cc1nn(C)c2ncc3c(c12)CCC3", "note": "[Example 55]", "values": [{"measurement": "analgesic activity in these tests (in words)", "setting": "[2]", "value": "good activity"}]}, {"compound": "Cc1nn(C)c2c1c1c(c(=O)n2CCN2CCN(C)CC2)CCCC1", "note": "[Example 45]", "values": [{"measurement": "influence on the CR and the UR (in words)", "setting": "[1]", "value": "no practical influence"}]}, {"compound": "Cc1nn(C)c2ncc3c(c12)CCCC3", "note": "[Example 57]", "values": [{"measurement": "analgesic activity in these tests (in words)", "setting": "[2]", "value": "highly effective"}, {"measurement": "LD50", "setting": "[3]", "value": 650, "unit": "mg/kg"}, {"measurement": "percent of inhibition of writhings", "setting": "[4]; 10 mg/kg per os", "value": 25, "unit": "%"}, {"measurement": "percent of inhibition of writhings", "setting": "[4]; 20 mg/kg per os", "value": 51, "unit": "%"}, {"measurement": "percent of inhibition of writhings", "setting": "[4]; 50 mg/kg per os", "value": 89, "unit": "%"}, {"measurement": "potency ratio co. 57:ASA", "setting": "[4]; writhing test, per os", "value": 6.6}, {"measurement": "LD50", "setting": "[5]", "value": "> 1000", "unit": "mg/kg"}, {"measurement": "percent of increase of the pain threshold", "setting": "[6]; 20 mg/kg per os", "value": 78, "unit": "%"}, {"measurement": "percent of increase of the pain threshold", "setting": "[6]; 50 mg/kg per os", "value": 115, "unit": "%"}, {"measurement": "percent of increase of the pain threshold", "setting": "[6]; 100 mg/kg per os", "value": 172, "unit": "%"}, {"measurement": "potency ratio co. 57:ASA", "setting": "[6]; pain relief test, per os", "value": 2.6}]}, {"compound": "Cc1nn(C)c2c1c1c(c(=O)n2CCN2CCN(c3ccccc3)CC2)CCC1", "note": "[Example 40]", "values": [{"measurement": "influence on the CR and the UR (in words)", "setting": "[1]", "value": "no practical influence"}]}, {"compound": "CC(=O)Oc1ccccc1C(=O)O", "note": "[ASA, acetylsalicylic acid, reference compound]", "values": [{"measurement": "percent of inhibition of writhings", "setting": "[4]; 20 mg/kg per os", "value": 10, "unit": "%"}, {"measurement": "percent of inhibition of writhings", "setting": "[4]; 50 mg/kg per os", "value": 57, "unit": "%"}, {"measurement": "percent of inhibition of writhings", "setting": "[4]; 100 mg/kg per os", "value": 86, "unit": "%"}, {"measurement": "percent of increase of the pain threshold", "setting": "[6]; 50 mg/kg per os", "value": 39, "unit": "%"}, {"measurement": "percent of increase of the pain threshold", "setting": "[6]; 100 mg/kg per os", "value": 84, "unit": "%"}, {"measurement": "percent of increase of the pain threshold", "setting": "[6]; 300 mg/kg per os", "value": 109, "unit": "%"}]}]}
